Laboratory results published in patent US20230203060A1 (GENFLEET THERAPEUTICS (SHANGHAI) INC., priority 2020, published 2023).

Key:
Type in all cases: cell-based, human
[1] = tested on: A549 cells (KRAS G12S mutant); experiment: Cell proliferation inhibition experiment, 3D spheroid, CellTiter-Glo, A549; conditions: Homo sapiens, A549, 120 h, A549 (KRAS G12S mutant) 3D spheroid, 5 days with compound, CellTiter-Glo; read-out: A549 IC50
Procedure, shortened: (§1)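 CellTiter-Glo luminescence after 5 days' compound treatment (3.16-fold series, 0.1% DMSO) of overnight-formed spheroids in 2% FBS medium: H358 seeded at 800 cells/well in RPMI-1640, A549 at 400 cells/well in F-12K. IC50 derived by four-parameter fit of inhibition normalized to DMSO control and blank.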

[2] = tested on: KRAS G12C mutant MIA PaCa-2 cells; experiment: Cell proliferation inhibition experiment, 3D spheroid, CellTiter-Glo, MIA PaCa-2; conditions: Homo sapiens, MIA PaCa-2, 120 h, 3D cell model in 384-well spheroid plate, 5 days, CellTiter-Glo; read-out: MIA-PaCa2 IC50
Procedure, shortened: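 Luminescent ATP read-out (CellTiter-Glo) after 5-day compound treatment of spheroids formed overnight from 200 MIA PaCa-2 cells/well; compounds in 3.16-fold series, 0.1% DMSO final. IC50 derived by four-parameter fit of percent inhibition, normalized to DMSO control and medium blank.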

[3] = tested on: KRAS G12C mutant NCI-H358 cells; experiment: Cell proliferation inhibition experiment, 3D spheroid, CellTiter-Glo, NCI-H358; conditions: Homo sapiens, NCI-H358, 120 h, NCI-H358 (KRAS G12C mutant) 3D spheroid, 5 days with compound, CellTiter-Glo; read-out: H358 IC50
Procedure, shortened: as §1

`C=CC(=O)N1CCN2C(=O)c3c(N4CC(N(C)CC(F)(F)F)CC4(C)C)nc(-c4ccccc4F)c(Cl)c3OC[C@H]2C1` (mixture of isomers) [Z491a, (6aR)-8-acryloyl-4-chloro-1-(2,2-dimethyl-4-(methyl(2,2,2-trifluoroethyl)amino)pyrrolidin-1-yl)-3-(2-fluorophenyl)-6,6a,7,8,9,10-hexahydro-12H-pyrazino[2,1-c]pyrido[3,4-f][1,4]oxazepin-12-one] showed an IC50 [1] of 4030 nM, an IC50 [2] of 10 nM and an IC50 [3] of 2 nM.
`C=CC(=O)N1CCN2C(=O)c3c(N4C[C@@H](N(C)CC(F)F)CC4(C)C)nc(-c4ccccc4F)c(Cl)c3OC[C@H]2C1` (single isomer, unassigned) [Z659-1] showed an IC50 [1] of 6180 nM, an IC50 [2] of 16 nM and an IC50 [3] of 5 nM.
Molecule `C=CC(=O)N1CCN2C(=O)c3c(N4CC(O)CC4(C)C)nc(-c4c(F)cccc4OC)c(F)c3OC[C@H]2C1` (single isomer, unassigned) [Z450] has an IC50 [1] of 20500 nM, an IC50 [2] of 34 nM and an IC50 [3] of 13.1 nM.
`C=CC(=O)N1CCN2C(=O)c3c(N4CCN(C)C[C@@H]4C)nc(-c4c(F)cccc4OC)c(F)c3OC[C@H]2C1` [Z451, (6aR)-8-acryloyl-1-((S)-2,4-dimethylpiperazin-1-yl)-4-fluoro-3-(2-fluoro-6-methoxyphenyl)-6,6 a,7,8,9,10-hexahydro-12H-pyrazino[2,1-c]pyrido[3,4-f][1,4]oxazepin-12 (6 aH)-one] gave an IC50 [1] of 5720 nM, an IC50 [2] of 363 nM and an IC50 [3] of 158 nM.
Molecule `C=CC(=O)N1CCN2C(=O)c3c(N4CCN(C)[C@@H](C)[C@@H]4C)nc(-c4ccccc4F)c(Cl)c3OC[C@H]2C1` [Z653, (R)-8-acryloyl-4-chloro-3-(2-fluorophenyl)-1-((2S,3S)-2,3,4-trimethylpiperazin-1-yl)-6,6a,7,8,9,10-hexahydro-12H-pyrazino[2,1-c]pyrido[3,4-f][1,4]oxazepin-12 (6aH)-one] has an IC50 [1] of 9310 nM, an IC50 [2] of 53 nM and an IC50 [3] of 27.5 nM.
With `C=CC(=O)N1CCN2C(=O)c3c(N4CCC[C@@]4(C)C(=O)NC)nc(-c4c(O)cccc4F)c(Cl)c3OC[C@H]2C1` [Z462, (2S)-1-((6aR)-8-acryloyl-4-chloro-3-(2-fluoro-6-hydroxyphenyl)-12-oxo-6,6a,7,8,9,10-hexahydro-12H-pyrazino[2,1-c]pyrido[3,4-f][1,4]oxazepin-1-yl)-N,2-dimethylpyrrolidine-2-carboxamide] the IC50 [1] was 29100 nM, the IC50 [2] was 16 nM and the IC50 [3] was 12.4 nM.
`C=CC(=O)N1CCN2C(=O)c3c(N4C[C@@H](NC)CC4(C)C)nc(-c4ccccc4F)c(Cl)c3OC[C@H]2C1` (single isomer, unassigned) [Z661-1] gave an IC50 [1] of 2900 nM, an IC50 [2] of 14 nM and an IC50 [3] of 6 nM.
Molecule `C=CC(=O)N1CCN2C(=O)c3c(NC(C)(C)C)nc(-c4ccccc4F)c(Cl)c3OC[C@H]2C1` [Z457, (R)-8-acryloyl-1-(tert-butylamino)-4-chloro-3-(2-fluorophenyl)-6,6a,7,8,9,10-hexahydro-12H-pyrazino[2,1-c]pyrido[3,4-f][1,4]oxazepin-12-one] has an IC50 [1] of 2950 nM, an IC50 [2] of 522 nM and an IC50 [3] of 62.7 nM.
For `C=CC(=O)N1CCN2C(=O)c3c(N4C[C@@H](N5CCN(C)CC5)CC4(C)C)nc(-c4ccccc4F)c(Cl)c3OC[C@H]2C1` (single isomer, unassigned) [Z454-1], the IC50 [1] was 2630 nM, the IC50 [2] was 3.5 nM and the IC50 [3] was 1.2 nM.
In the case of `C=CC(=O)N1CCN2C(=O)c3c(N4CCOC(C)(C)C4)nc(-c4c(O)cccc4F)c(Cl)c3OC[C@H]2C1` [Z37, (6aR)-8-acryloyl-4-chloro-1-(2,2-dimethylmorpholino)-3-(2-fluoro-6-hydroxyphenyl)-6,6a,7,8,9,10-hexahydro-12H-pyrazino[2,1-c]pyrido[3,4-f][1,4]oxazepin-12-one], the IC50 [1] is reported as over 30000 nM, the IC50 [2] is reported as 12 nM and the IC50 [3] is reported as 9 nM.
Work on `C=CC(=O)N1CCN2C(=O)c3c(N4C[C@@H](N5CCN(C)CC5)CC4(C)C)nc(-c4c(O)cccc4F)c(Cl)c3OC[C@H]2C1` (single isomer, unassigned) [Z469-1] yielded an IC50 [1] of 5230 nM, an IC50 [2] of 0.6 nM and an IC50 [3] of 0.5 nM.
In the case of `C=CC(=O)N1CCN2C(=O)c3c(N4CCN(C)C[C@@H]4C)nc(-c4c(F)cccc4C(F)F)c(Cl)c3OC[C@H]2C1` [Z456, (6aR)-8-acryloyl-4-chloro-3-(2-(difluoromethyl)-6-fluorophenyl)-1-((S)-2,4-dimethylpiperazin-1-yl)-6,6a,7,8,9,10-hexahydro-12H-pyrazino[2,1-c]pyrido[3,4-f][1,4]oxazepin-12-one], the IC50 [1] is reported as 9730 nM, the IC50 [2] is reported as 22.8 nM and the IC50 [3] is reported as 9.4 nM.
`C=CC(=O)N1CCN2C(=O)c3c(N4C[C@H](N5CC(C#N)C5)CC4(C)C)nc(-c4ccccc4F)c(Cl)c3OC[C@H]2C1` (single isomer, unassigned) [Z637-1] was tested, and the IC50 [1] was 2970 nM, the IC50 [2] was 549 nM and the IC50 [3] was 125 nM.
Work on `C=CC(=O)N1CCN2C(=O)c3c(N4C[C@@H](N(C)C)CC4(C)C)nc(-c4c(F)ccc(F)c4O)c(Cl)c3OC[C@H]2C1` [Z475-1, (6aR)-8-acryloyl-4-chloro-3-(3,6-difluoro-2-hydroxyphenyl)-1-((S)-4-(dimethylamino)-2,2-dimethylpyrrolidin-1-yl)-6,6a,7,8,9,10-hexahydro-12H-pyrazino[2,1-c]pyrido[3,4-f][1,4]oxazepin-12-one] yielded an IC50 [1] of 5170 nM, an IC50 [2] of 5 nM and an IC50 [3] of 2 nM.
Molecule `C=CC(=O)N1CCN2C(=O)c3c(N4CCOC[C@@H]4C)nc(-c4c(O)cccc4F)c(Cl)c3OC[C@H]2C1` [Z32] has an IC50 [1] of over 5000 nM, an IC50 [2] of 11 nM and an IC50 [3] of 9 nM.
`C=CC(=O)N1CCN2C(=O)c3c(NC45CC(C4)C5)nc(-c4c(O)cccc4F)c(Cl)c3OC[C@H]2C1` [Z41, (6aR)-8-acryloyl-1-(bicyclo [1.1.1]pentan-1-ylamino)-4-chloro-3-(2-fluoro-6-hydroxyphenyl)-6,6a,7,8,9,10-hexahydro-12H-pyrazino[2,1-c]pyrido[3,4-f][1,4]oxazepin-12-one] gave an IC50 [1] of 1220 nM, an IC50 [2] of 73 nM and an IC50 [3] of 22 nM.
`C=CC(=O)N1CCN2C(=O)c3c(N4C[C@H](N(C)C)CC4(C)C)nc(-c4c(F)ccc(F)c4O)c(Cl)c3OC[C@H]2C1` (single isomer, unassigned) [Z475-2] gave an IC50 [1] of 5860 nM, an IC50 [2] of 15 nM and an IC50 [3] of 8 nM.
In the case of `C=CC(=O)N1CCN2C(=O)c3c(N4C[C@@H](N(C)C)CC4(C)C)nc(-c4ccccc4)c(Cl)c3OC[C@H]2C1` (single isomer, unassigned) [Z655-1], the IC50 [1] is reported as 3320 nM, the IC50 [2] is reported as 113 nM and the IC50 [3] is reported as 38 nM.
Work on `C=CC(=O)N1CCN2C(=O)c3c(N4C[C@H](N(C)C)CC4(C)C)nc(-c4cccc(C)c4F)c(Cl)c3OC[C@H]2C1` (single isomer, unassigned) [Z472-2] yielded an IC50 [1] of 1650 nM, an IC50 [2] of 53 nM and an IC50 [3] of 8 nM.
Work on `C=CC(=O)N1CCN2C(=O)c3c(N4C[C@H](N(C)CC(F)(F)F)CC4(C)C)nc(-c4ccccc4F)c(Cl)c3OC[C@H]2C1` (single isomer, unassigned) [Z493] yielded an IC50 [1] of 7240 nM, an IC50 [2] of 112 nM and an IC50 [3] of 27 nM.
Molecule `C=CC(=O)N1CCN2C(=O)c3c(N4CCN(C)C[C@@H]4C)nc(-c4c(O)cccc4Cl)c(Cl)c3OC[C@H]2C1` [Z452, (6aR)-8-acryloyl-4-chloro-3-(2-chloro-6-hydroxyphenyl)-1-((S)-2,4-dimethylpiperazin-1-yl)-6,6a,7,8,9,10-hexahydro-12H-pyrazino[2,1-c]pyrido[3,4-f][1,4]oxazepin-12-one] has an IC50 [1] of 8990 nM, an IC50 [2] of 11.2 nM and an IC50 [3] of 3.9 nM.
`C=CC(=O)N1CCN2C(=O)c3c(N4CC(C(=O)O)CC4(C)C)nc(-c4c(O)cccc4F)c(Cl)c3OC[C@H]2C1` (stereo partly drawn) [Z458, 1-((6aR)-8-acryloyl-4-chloro-3-(2-fluoro-6-hydroxyphenyl)-12-oxo-6,6a,7,8,9,10-hexahydro-12H-pyrazino[2,1-c]pyrido[3,4-f][1,4]oxazepin-1-yl)-5,5-dimethylpyrrolidine-3-carboxylic acid] showed an IC50 [1] of over 30000 nM, an IC50 [2] of over 1000 nM and an IC50 [3] of 305 nM.
`C=CC(=O)N1CCN2C(=O)c3c(N4C[C@@H](N(C)C)CC4(C)C)nc(-c4ccccc4F)c(Cl)c3OC[C@H]2C1` [Z453-1, (R)-8-acryloyl-4-chloro-1-((S)-4-(dimethylamino)-2,2-dimethylpyrrolidin-1-yl)-3-(2-fluorophenyl)-6,6a,7,8,9,10-hexahydro-12H-pyrazino[2,1-c]pyrido[3,4-f][1,4]oxazepin-12-one] showed an IC50 [1] of 3340 nM, an IC50 [2] of 14 nM and an IC50 [3] of 6 nM.
In the case of `C=CC(=O)N1CCN2C(=O)c3c(N4CC(N5CCC(F)(F)C5)CC4(C)C)nc(-c4ccccc4F)c(Cl)c3OC[C@H]2C1` (stereo partly drawn) [Z532, (6aR)-8-acryloyl-4-chloro-1-(3,3-difluoro-5′,5′-dimethyl-[1,3′-bipyrrolidin]-1′-yl)-3-(2-fluorophenyl)-6,6a,7,8,9,10-hexahydro-12H-pyrazino[2,1-c]pyrido[3,4-f][1,4]oxazepin-12-one], the IC50 [1] is reported as 3170 nM, the IC50 [2] is reported as 24.5 nM and the IC50 [3] is reported as 5.8 nM.
`C=CC(=O)N1CCN2C(=O)c3c(N4CC(N5CCOCC5)CC4(C)C)nc(-c4ccccc4F)c(Cl)c3OC[C@H]2C1` (single isomer, unassigned) [Z468-1] was tested, and the IC50 [1] was 3280 nM, the IC50 [2] was 16 nM and the IC50 [3] was 4 nM.
